Source: paper PMC5743070 (The Journal of Biological Chemistry, 2017)

Columns and labels:
[1] = target: T1, TTD–PHD (UHRF1_126–366) (Homo sapiens, UniProt Q96T88); assay: SAXS of TTD–PHD in the presence of BPC
T1 construct: His tag (TEV-cleavable) (N); made in house
T1 sequence (Q96T88 126-366): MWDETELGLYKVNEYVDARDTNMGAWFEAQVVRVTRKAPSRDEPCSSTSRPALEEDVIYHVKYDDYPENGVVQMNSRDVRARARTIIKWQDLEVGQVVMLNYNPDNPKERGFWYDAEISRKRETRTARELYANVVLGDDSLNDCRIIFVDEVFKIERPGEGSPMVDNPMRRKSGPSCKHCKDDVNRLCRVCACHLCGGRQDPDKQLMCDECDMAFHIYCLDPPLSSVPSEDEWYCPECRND
Experimental: All SAXS samples were buffered in 20 mM Tris (pH 7.5), 150 mM NaCl, 5 mM DTT, 5 mM β-mercaptoethanol, 2 mM TCEP and 10 μM ZnCl2, and data were collected at concentrations ranging from ∼1 to 5 mg/ml. Measurements were carried out at Beamline 12-ID-B of the Advanced Photon Source, Argonne National Laboratory. The energy of the X-ray beam was 14 Kev (wavelength λ = 0.8856 Å), and two setups (small- and wide-angle X-ray scattering) were used simultaneously in which the sample to 2M detector distance was adjusted to achieve scattering q values of 0.006 < q < 2.6 Å^−1, where q = (4π/λ)sinθ, and 2θ is the scattering angle. To reduce radiation damage and obtain good statistics, thirty 2D images were recorded for each buffer or sample solution using a flow cell, with an accumulated exposure time of 0.4–2.0 s. No radiation damage was observed as confirmed by the absence of systematic signal changes in sequentially collected X-ray scattering images. The scattering profile of the protein was calculated by subtracting the background buffer contribution from the […] using the program PRIMUS (ATSAS package, EMBL) ([35]). Concentration series measurements for a sample were carried out to remove the scattering contribution caused by interparticle interactions and to extrapolate the data to infinite dilution. Guinier analysis and the experimental radius of gyration (Rg) estimation from the data of infinite dilution were performed using PRIMUS. The pair distance distribution function, P(r), and the maximum dimension of the protein, Dmax, in real space were calculated with the indirect Fourier transform using the program GNOM ([36]). To avoid underestimation of the molecular dimension and consequent distortion in low resolution structural reconstruction, the parameter Dmax, the upper end of distance r, was chosen such that the resulting PDDF has a short, near zero-value tail at large r. The Rg from P(r) analysis was also reported. The molecular weights were estimated using Vc ([37]) in the q range of 0 < q < 0.3 Å^−1. Fifteen ab initio shape reconstructions (molecular envelopes) were generated using DAMMIF ([38]) and averaged with DAMAVER ([39]). The structural models were superimposed and overlaid with the averaged envelope using SUPCOMP ([40]). The theoretical scattering intensity of a structural model was calculated and fitted to the experimental scattering intensity using CRYSOL ([41]).
Table S1 (related to Fig. 1, S1, S4): SAXS parameters for the TTD-PHD module SAXS HTG-TTD-PHDa TTD-PHD/BPCb […]
b UHRF1126-366 in complex with BPC (2 mM, 4% DMSO) […]
d Rg calculated using Guinier fit e Rg calculated using GNOM (5) f Maximum distance between atoms from GNOM g Volume of correlation (6) h Mw estimated from SAXS data using Vc (6). The Mw expected from sequence is shown in parentheses i Normalized spatial discrepancy. The values are the average and standard deviation from fifteen runs

[2] = solubility (statement); format: physicochemical
[3] = target: T1, TTD–PHD (UHRF1_126–366); assay: ITC of H3 peptide binding to TTD–PHD
Experimental: A preliminary peptide injection of 0.06 μl was followed by subsequent 2-μl injections into the sample cell containing 167 μl of 50 μM TTD–PHD. Where indicated, 1.5 mM BPC or 1.5 mM PBR peptide was included in the injection syringe and sample cell. The reported KD and n values are based on the average from two measurements. For ITC measurements of TTD (UHRF1_121–286) interaction with BPC, the protein was buffered in 20 mM Tris (pH 7.4), 50 mM NaCl, and 5% DMSO. BPC was brought to a concentration of 2.5 mM and injected into the sample cell containing 40 μM protein. The data were acquired on a Nano ITC from TA Instruments at 25 °C and fitted with an independent-binding site model using NanoAnalyze software (v3.7.0).
ITC curves showing TTD-PHD binding to methylated (red) and unmethylated (black) H3 peptide.
(1 picture or pasted object on this page, not shown here)

[4] = 2 mM BPC, 4% DMSO, GNOM, Table S1

Structure (SMILES): N=C(N)N1CCC(Cc2ccccc2)CC1 [BPC, 4-benzylpiperidine-1-carboximidamide]
- Dmax of TTD-PHD with BPC [1, 4]: 94 Å
- Rg real (GNOM) of TTD-PHD with BPC [1, 4]: 27.1 Å
- Rg (Guinier fit) of TTD-PHD with BPC ([1]; 2 mM BPC, 4% DMSO, Guinier fit, Table S1): 26.6 Å
- Vc (volume of correlation) of TTD-PHD with BPC ([1]; 2 mM BPC, 4% DMSO, Table S1): 280.5
- Rg (Guinier fit) of TTD–PHD with BPC ([1]; 4 mM BPC, 4% DMSO, 20 mM Tris pH 7.5, 150 mM NaCl, Guinier fit, apo 24.5): 27.1 Å
- Vc (volume of correlation) of TTD–PHD with BPC ([1]; 4 mM BPC, 4% DMSO, apo 274.3): 284.4
- Rg real (GNOM) of TTD–PHD with BPC ([1]; 4 mM BPC, 4% DMSO, from GNOM, apo 24.9): 27.2 Å
- Dmax of TTD–PHD with BPC ([1]; 4 mM BPC, 4% DMSO, from GNOM, apo 83): 94 Å
- shallow secondary shoulder of pair-distance distribution function ([1]; TTD–PHD with BPC (4 mM, 4% DMSO)): ~50 Å
- solubility [2]: highly soluble
- effect on TTD–PHD binding affinity for the histone peptide ([3]; 1.5 mM BPC (4% DMSO) or 1.5 mM PBR peptide, H3K9me3(1–15)): reduces the TTD–PHD binding affinity for the histone peptide
- increase of KD for H3K9me3 (effect of added ligand) ([3]; 1.5 mM BPC or PBR peptide in syringe and cell, vs apo TTD–PHD): ~5 fold
